Measurements reported in article PMC4843002, “Identification of pyrazolopyridazinones as PDEδ inhibitors” (Nature Communications, 2016).

Key:
[1] = target: T1, NK2 (h) (Homo sapiens, UniProt P21452); test: Cerep binding, agonist radioligand; conditions: read-out: % Inhibition of Control Specific Binding
T1 construct: purchased Eurofins Pharma Discovery Services (CEREP diversity panel)

[2] = test system: PCP; test: Cerep binding, antagonist radioligand; conditions: 5 µM
[3] = test system: MIA PaCa-2 cells; test: RTCA growth profile; type: cell-based, human; conditions: MIA PaCa-2, doses higher than 3 μM
Method: (§1) RTCA was performed using 16-well E-plates on the Dual Plate xCELLigence instrument (Roche Applied Science, Indianapolis, IN). This system measures a dimensionless parameter called cell index, which evaluates the ionic environment at an electrode/solution interface and integrates information on cell number. Depending on the cell line 5 × 10^3–1 × 10^4 cells were plated in each well of the 16-well plates in 200 μl of cell culture medium. After seeding, cells were allowed to settle for 30 min at room temperature before being inserted into the xCELLigence instrument in a humidified incubator at 37 °C with 10% CO2. For RTCA experiments assaying cells stably expressing the inducible shRNA transgene, cells were seeded onto the E-plates in medium supplemented with 200 ng ml^−1 doxycycline. […] The small-molecule inhibitors were added at indicated time points and in the indicated concentrations. […] All assays were performed in duplicates. The cell index was normalized to 1 at the time point of drug administration.

[4] = test system: Capan-1 cells; test: RTCA growth profile; type: cell-based, human; conditions: Capan-1, doses up to 24 μM
Method: as §1

[5] = target: T2, GABA transaminase (Rattus norvegicus, UniProt P50554); test: Cerep enzyme and cell-based assays; type: biochemical; conditions: read-out: % Inhibition of Control Values
T2 construct: Eurofins Pharma Discovery Services (CEREP diversity panel, outsourced assay)

[6] = test system: GABA transporter; test: Cerep binding, antagonist radioligand; conditions: 5 µM
[7] = test system: alpha 1 (non-selective); test: Cerep binding, antagonist radioligand; conditions: 5 µM
[8] = mouse, in vivo
Method: (§10) Determination of pharmacokinetic properties in vivo
50% physiological saline / 40% water.
(§11) The regression equation of the calibration curve was used to calculate plasma concentrations. Pharmacokinetic parameters were calculated using the PKSolver
(§12) Animal experiments and care were conducted at Synovo GmbH (Tübingen, Germany) in accordance with the guidelines of institutional authorities and approved

[9] = target: T3, PDE4D2 (h) (Homo sapiens, UniProt Q08499); test: Cerep enzyme and cell-based assays; type: biochemical; conditions: read-out: % Inhibition of Control Values
T3 construct: Eurofins Pharma Discovery Services (CEREP diversity panel, outsourced assay)

[10] = target: T4, NK1 (h) (Homo sapiens, UniProt P25103); test: Cerep binding, agonist radioligand; conditions: read-out: % Inhibition of Control Specific Binding
T4 construct: purchased Eurofins Pharma Discovery Services (CEREP diversity panel)

[11] = test system: P2Y; test: Cerep binding, agonist radioligand; conditions: 5 µM
[12] = test system: Erk phosphorylation; test: western blot, Erk phosphorylation in PANC-1
Method: To examine whether PDEδ inhibition by Deltarasin and Deltazinone 1 downregulates the signal transduction via these pathways, we examined the phosphorylation of extracellular signal regulated kinase (Erk) and S6 Ribosomal Protein (S6P) in the oncogenic KRas-dependent Panc-Tu-1 and KRas-independent PANC-1 cells. […] Cells were lysed with RIPA-buffer (20 mM Tris pH 7.5, 150 mM NaCl, 0.5 mM Na2 EDTA, 1 % sodium deoxycholate, 0.1% sodium dodecyl sulfate, 1% IGEPAL supplemented with Complete Mini EDTA-free protease inhibitor (Roche Applied Science) and 1% phosphatase inhibitor cocktail 2 and 3 (P5726 and P0044, Sigma Aldrich), scraped off after 5 min on ice and centrifuged at 14,000g for 20 min at 4 °C. SDS–polyacrylamide gel electrophoresis was carried out with 10–25 μg of whole-cell lysate from each sample. The gels were blotted onto polyvinylidene difluoride membrane (Millipore) and blocked for 1 h at room temperature. […] Blots were scanned on a LI-COR Odyssey imaging system.
Western blots were quantified using ImageJ. The background of the blots was subtracted by applying the rolling ball subtraction with a radius of 50 pixels. Afterwards the integrated intensity of the bands was measured.

[13] = target: T5, A3 (h) (Homo sapiens, UniProt P0DMS8); test: Cerep binding, agonist radioligand; conditions: read-out: % Inhibition of Control Specific Binding
T5 construct: purchased Eurofins Pharma Discovery Services (CEREP diversity panel)

[14] = target: T6, IP (PGI2) (h) (Homo sapiens, UniProt P43119); test: Cerep binding, agonist radioligand; conditions: read-out: % Inhibition of Control Specific Binding
T6 construct: purchased Eurofins Pharma Discovery Services (CEREP diversity panel)

[15] = test system: alpha 2 (non-selective); test: Cerep binding, antagonist radioligand; conditions: 5 µM
[16] = in vivo; conditions: female, NMRI, mouse, 3 mg/kg
Method: as §10
50% physiological saline / 40% water.
as §11, §12

[17] = test system: NMDA; test: Cerep binding, antagonist radioligand; conditions: 5 µM
[18] = target: T7, H1 (h) (Homo sapiens, UniProt P35367); test: Cerep binding, antagonist radioligand; conditions: read-out: % Inhibition of Control Specific Binding
T7 construct: purchased Eurofins Pharma Discovery Services (CEREP diversity panel)

[19] = target: T8, phosphatase 1B (h) (PTP1B) (Homo sapiens, UniProt P18031); test: Cerep enzyme and cell-based assays; type: biochemical; conditions: read-out: % Inhibition of Control Values
T8 construct: Eurofins Pharma Discovery Services (CEREP diversity panel, outsourced assay)

[20] = target: T9, tyrosine hydroxylase (Rattus norvegicus, UniProt P04177); test: Cerep enzyme and cell-based assays; type: biochemical; conditions: read-out: % Inhibition of Control Values
T9 construct: Eurofins Pharma Discovery Services (CEREP diversity panel, outsourced assay)

[21] = target: T10, HDAC6 (h) (Homo sapiens, UniProt Q9UBN7); test: Cerep enzyme and cell-based assays; type: biochemical; conditions: read-out: % Inhibition of Control Values
T10 construct: Eurofins Pharma Discovery Services (CEREP diversity panel, outsourced assay)

[22] = target: T11, CENP-E (h) (Homo sapiens, UniProt Q02224); test: Cerep enzyme and cell-based assays; type: biochemical; conditions: read-out: % Inhibition of Control Values
T11 construct: Eurofins Pharma Discovery Services (CEREP diversity panel, outsourced assay)

[23] = target: T12, MAO-B (h) recombinant enzyme (Homo sapiens, UniProt P27338); test: Cerep enzyme and cell-based assays; type: biochemical; conditions: read-out: % Inhibition of Control Values
T12 construct: Eurofins Pharma Discovery Services (CEREP diversity panel, outsourced assay)

[24] = test system: PANC-1; test: CellTiter-Glo cell viability; type: cell-based, human; conditions: PANC-1, CellTiter-Glo, n = 10
Method: (§2) Biochemical and Pharmacological Assays
(§3) Determination of cell viability using CellTiter-Glo®
(§4) Cells were seeded on day 1 at 500 cells per well to assure assay linearity and optimal signal intensity. After incubation for 24h in humidified incubator at 37°C, 5% CO2, compounds / DMSO were added at different concentrations. Cells were further incubated for 72 h at 37°C and 5% CO2. Cells treated with the compound vehicle (DMSO) […].
(§5) At day 5 the CellTiter-Glo® Reagent was prepared according to the instructions of the manufacturer (Promega): The Reagent was mixed 1:1 with cell culture medium.
(§6) Thereon, mixture and assay plates were equilibrated at room temperature for 20 min.
(§7) Equal volumes of the reagent-medium-mixture were added to the volume of culture medium present in each well. The plates were mixed at 200 rpm for 2 minutes on an orbital shaker and afterwards incubated at room temperature for 10 minutes.
(§8) Following incubation the luminescence was recorded on a Victor microplate reader (Perkin Elmer) using a 200 ms integration time. The data was analyzed with Excel using the XLFIT Plugin (dose response Fit 205) for IC50-determination.
(§9) As quality control the Z´ -factor was calculated from 16 positive and negative control values. Only assay results showing a Z´ -factor ≥ 0.5 were used for further analysis.

[25] = test system: Panc-Tu-I; test: CellTiter-Glo cell viability; type: cell-based, human
Method: as §2, §3, §4, §5, §6, §7, §8, §9

[26] = target: T13, MAO-A (h) (Homo sapiens, UniProt P21397); test: Cerep enzyme and cell-based assays; type: biochemical; conditions: read-out: % Inhibition of Control Values
T13 construct: Eurofins Pharma Discovery Services (CEREP diversity panel, outsourced assay)

[27] = target: T14, interaction between mCitrine-KRas and mCherry-PDEδ (Homo sapiens, UniProt O43924); test: FLIM-FRET, mCitrine-KRas/mCherry-PDEδ in MDCK cells after Bryostatin; type: cell-based, canine; conditions: 5 μM inhibitor after 1 μM Bryostatin-1, MDCK cells
T14 construct: expressed in transfected cells; host or cells: MDCK cells, transient transfection
Excerpt: To measure whether both inhibitors also affect the interaction of KRas with PDEδ, MDCK cells were transiently transfected with mCitrine-KRas and mCherry-PDEδ. […] To increase the fraction of KRas that interacts with PDEδ, the Protein Kinase C (PKC) activator Bryostatin, which induces serine (S181) phosphorylation on KRas[17], was applied, resulting in a reduced electrostatic interaction with the PM and increased cytosolic pool of mCitrine-KRas.
Fluorescence lifetime images were acquired using a confocal laser-scanning microscope (FV1000, Olympus) equipped with a time-correlated single-photon counting module (LSM Upgrade Kit, Picoquant). For detection of the donor (mCitrine), the sample was excited using a 470-nm diode laser (LDH 470, Picoquant) at a 36-MHz repetition frequency. […] Photons were detected using a single-photon counting avalanche photodiode (PDM Series, MPD) and timed using a single-photon counting module (PicoHarp 300, Picoquant).
Intensity thresholds were applied to segment the cells from the background fluorescence. Data were analysed via global analysis[23] to obtain images of the molar fraction (α) of interacting mCitrine-Rheb with mCherry-PDEδ. […] Dose–response relationships were determined by plotting obtained α per addition, using equation:

[28] = target: T15, sirtuin 1 (h) (inhibitor effect) (Homo sapiens, UniProt Q96EB6); test: Cerep enzyme and cell-based assays; type: biochemical; conditions: read-out: % Inhibition of Control Values
T15 construct: Eurofins Pharma Discovery Services (CEREP diversity panel, outsourced assay)

[29] = Homo sapiens, 72 h, read-out: IC50 anti-proliferative activity

T7 sequence (P35367 whole entry): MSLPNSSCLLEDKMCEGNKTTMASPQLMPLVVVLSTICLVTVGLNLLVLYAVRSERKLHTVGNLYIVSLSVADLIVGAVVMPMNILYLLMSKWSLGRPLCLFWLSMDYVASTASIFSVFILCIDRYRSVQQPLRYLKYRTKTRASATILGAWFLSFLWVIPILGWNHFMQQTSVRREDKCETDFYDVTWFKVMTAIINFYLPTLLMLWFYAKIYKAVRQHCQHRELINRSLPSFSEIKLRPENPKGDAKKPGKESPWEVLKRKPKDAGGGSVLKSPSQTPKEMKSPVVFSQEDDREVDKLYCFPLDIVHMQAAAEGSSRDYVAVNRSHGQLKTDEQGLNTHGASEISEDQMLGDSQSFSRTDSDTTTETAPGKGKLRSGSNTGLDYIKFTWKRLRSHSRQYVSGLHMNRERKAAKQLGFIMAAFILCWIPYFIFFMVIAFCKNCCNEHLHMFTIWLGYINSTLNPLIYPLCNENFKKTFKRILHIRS
T3 sequence (Q08499 303-809 limits assumed): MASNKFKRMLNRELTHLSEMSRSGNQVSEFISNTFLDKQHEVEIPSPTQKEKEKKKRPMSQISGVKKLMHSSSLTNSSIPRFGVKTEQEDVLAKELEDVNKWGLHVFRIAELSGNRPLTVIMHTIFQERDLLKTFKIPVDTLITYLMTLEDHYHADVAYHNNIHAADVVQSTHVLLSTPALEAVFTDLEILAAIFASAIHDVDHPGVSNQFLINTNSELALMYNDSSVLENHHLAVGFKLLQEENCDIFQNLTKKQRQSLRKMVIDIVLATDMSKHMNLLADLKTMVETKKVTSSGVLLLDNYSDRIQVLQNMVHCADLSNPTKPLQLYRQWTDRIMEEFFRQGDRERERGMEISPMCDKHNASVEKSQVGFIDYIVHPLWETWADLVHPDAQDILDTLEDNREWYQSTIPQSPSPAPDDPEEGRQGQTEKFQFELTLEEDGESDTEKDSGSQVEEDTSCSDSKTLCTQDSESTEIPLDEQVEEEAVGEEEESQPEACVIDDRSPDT
T6 sequence (P43119 whole entry): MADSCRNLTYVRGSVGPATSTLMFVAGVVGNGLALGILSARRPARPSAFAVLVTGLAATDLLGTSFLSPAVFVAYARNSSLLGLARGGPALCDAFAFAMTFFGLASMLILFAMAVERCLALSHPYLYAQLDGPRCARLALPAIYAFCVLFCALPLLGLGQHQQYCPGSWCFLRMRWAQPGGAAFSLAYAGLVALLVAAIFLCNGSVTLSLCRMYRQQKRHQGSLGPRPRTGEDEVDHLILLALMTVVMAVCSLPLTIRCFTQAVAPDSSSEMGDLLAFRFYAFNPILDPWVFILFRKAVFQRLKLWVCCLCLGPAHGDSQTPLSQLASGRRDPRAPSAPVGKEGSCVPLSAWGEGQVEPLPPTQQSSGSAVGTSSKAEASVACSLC
T5 sequence (P0DMS8 whole entry): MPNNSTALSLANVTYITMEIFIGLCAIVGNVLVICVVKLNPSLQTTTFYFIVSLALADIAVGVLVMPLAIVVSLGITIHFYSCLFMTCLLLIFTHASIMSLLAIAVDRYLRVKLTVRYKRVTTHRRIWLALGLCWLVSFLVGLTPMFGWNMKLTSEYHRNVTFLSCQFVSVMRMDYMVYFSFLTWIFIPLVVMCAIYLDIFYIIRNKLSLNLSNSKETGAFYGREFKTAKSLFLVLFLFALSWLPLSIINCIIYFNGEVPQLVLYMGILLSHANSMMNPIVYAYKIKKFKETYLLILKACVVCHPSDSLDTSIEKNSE
T1 sequence (P21452 whole entry): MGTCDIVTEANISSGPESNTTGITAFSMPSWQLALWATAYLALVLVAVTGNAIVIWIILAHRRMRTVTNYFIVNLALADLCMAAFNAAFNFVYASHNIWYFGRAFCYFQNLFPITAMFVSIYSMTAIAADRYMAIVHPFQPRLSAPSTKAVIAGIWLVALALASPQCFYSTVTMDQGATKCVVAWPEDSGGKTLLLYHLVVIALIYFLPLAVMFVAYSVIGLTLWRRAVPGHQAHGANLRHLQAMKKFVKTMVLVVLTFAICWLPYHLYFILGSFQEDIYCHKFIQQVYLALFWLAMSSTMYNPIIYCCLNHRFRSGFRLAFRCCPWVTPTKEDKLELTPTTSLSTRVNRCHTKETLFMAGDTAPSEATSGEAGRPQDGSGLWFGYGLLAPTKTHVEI
T4 sequence (P25103 whole entry): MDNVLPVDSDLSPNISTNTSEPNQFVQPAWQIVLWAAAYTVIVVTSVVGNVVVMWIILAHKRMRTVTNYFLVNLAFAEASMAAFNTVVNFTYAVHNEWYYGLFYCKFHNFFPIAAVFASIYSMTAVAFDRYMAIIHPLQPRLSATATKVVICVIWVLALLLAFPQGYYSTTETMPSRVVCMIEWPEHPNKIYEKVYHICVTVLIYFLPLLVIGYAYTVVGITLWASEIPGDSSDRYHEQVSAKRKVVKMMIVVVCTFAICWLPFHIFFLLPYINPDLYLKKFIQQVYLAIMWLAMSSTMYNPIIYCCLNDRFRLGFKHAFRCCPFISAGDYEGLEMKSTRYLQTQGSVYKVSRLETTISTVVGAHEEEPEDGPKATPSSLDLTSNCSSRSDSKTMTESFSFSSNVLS
T15 sequence (Q96EB6 whole entry): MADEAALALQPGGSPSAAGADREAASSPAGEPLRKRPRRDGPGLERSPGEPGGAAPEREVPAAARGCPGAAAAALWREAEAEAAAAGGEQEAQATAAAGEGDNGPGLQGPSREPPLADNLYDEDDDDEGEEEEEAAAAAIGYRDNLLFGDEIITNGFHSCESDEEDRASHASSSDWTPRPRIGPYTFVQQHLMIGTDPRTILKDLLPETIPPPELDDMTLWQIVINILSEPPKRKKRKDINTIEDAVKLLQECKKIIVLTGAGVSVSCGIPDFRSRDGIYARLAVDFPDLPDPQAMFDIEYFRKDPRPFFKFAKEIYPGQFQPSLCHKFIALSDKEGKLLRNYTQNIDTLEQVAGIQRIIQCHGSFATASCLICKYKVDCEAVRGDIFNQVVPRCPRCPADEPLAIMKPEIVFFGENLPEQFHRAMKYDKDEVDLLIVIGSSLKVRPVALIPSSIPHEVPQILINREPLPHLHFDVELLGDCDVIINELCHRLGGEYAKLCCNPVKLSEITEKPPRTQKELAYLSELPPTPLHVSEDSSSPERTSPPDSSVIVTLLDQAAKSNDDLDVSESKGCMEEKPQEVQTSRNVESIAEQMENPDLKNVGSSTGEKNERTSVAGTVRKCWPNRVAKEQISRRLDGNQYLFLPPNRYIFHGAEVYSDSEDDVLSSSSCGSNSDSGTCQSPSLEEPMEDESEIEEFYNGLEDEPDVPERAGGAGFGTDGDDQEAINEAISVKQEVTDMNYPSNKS
T8 sequence (P18031 whole entry): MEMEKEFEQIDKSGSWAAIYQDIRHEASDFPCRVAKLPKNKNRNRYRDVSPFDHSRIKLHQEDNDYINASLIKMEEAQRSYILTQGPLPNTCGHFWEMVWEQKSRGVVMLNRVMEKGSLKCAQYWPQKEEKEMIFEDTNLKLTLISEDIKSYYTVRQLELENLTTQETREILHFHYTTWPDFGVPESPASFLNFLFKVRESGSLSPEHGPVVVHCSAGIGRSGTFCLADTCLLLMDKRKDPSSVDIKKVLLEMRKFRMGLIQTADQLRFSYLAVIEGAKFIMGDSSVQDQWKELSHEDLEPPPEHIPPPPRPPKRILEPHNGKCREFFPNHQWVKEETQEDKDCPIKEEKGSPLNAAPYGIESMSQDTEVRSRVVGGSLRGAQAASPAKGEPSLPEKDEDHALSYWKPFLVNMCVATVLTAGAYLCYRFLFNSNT
T10 sequence (Q9UBN7 whole entry): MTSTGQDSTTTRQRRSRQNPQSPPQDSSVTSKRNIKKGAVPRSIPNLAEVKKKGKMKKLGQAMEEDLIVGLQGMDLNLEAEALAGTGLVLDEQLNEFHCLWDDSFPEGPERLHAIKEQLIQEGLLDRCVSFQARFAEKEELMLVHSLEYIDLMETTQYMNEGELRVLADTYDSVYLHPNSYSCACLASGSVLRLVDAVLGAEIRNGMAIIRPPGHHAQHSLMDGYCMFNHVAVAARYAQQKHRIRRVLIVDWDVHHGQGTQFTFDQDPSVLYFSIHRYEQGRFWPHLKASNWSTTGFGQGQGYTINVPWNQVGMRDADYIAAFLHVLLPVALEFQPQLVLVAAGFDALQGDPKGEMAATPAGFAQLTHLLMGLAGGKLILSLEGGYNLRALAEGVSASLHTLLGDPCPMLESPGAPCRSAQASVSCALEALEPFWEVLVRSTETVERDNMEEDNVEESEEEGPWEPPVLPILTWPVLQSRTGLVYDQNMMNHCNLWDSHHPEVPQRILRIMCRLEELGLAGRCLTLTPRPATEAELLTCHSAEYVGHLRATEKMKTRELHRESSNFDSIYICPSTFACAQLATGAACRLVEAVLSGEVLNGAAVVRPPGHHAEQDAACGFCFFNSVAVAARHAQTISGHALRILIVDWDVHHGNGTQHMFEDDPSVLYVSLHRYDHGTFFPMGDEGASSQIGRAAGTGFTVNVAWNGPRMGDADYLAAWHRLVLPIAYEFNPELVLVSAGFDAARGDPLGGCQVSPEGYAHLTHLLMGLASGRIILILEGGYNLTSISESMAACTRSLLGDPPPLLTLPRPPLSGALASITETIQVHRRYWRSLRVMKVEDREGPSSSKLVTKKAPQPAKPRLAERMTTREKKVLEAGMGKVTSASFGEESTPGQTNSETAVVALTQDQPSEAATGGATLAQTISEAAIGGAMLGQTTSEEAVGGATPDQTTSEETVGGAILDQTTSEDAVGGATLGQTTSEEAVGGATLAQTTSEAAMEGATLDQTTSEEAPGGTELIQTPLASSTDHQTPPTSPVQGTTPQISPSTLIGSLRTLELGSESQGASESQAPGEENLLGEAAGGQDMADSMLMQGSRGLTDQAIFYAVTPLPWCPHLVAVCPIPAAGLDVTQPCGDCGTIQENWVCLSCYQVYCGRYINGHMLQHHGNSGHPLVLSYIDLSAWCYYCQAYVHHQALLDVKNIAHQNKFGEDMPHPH

Cc1ccc(-n2nc3c(=O)n(CCCC(=O)NCC(C)c4ccccc4)nc(C)c3c2C)cc1 (stereo not shown) [2k]
inhibition at 5 µM [1]: -4% | % Inhibition of Control Specific Binding [2]: -8% | time after administration at which decreasing cell indices indicated cell death [3]: ~40 h | effect on growth [4]: strong growth inhibition but not cell death | inhibition at 5 µM [5]: 0% | % Inhibition of Control Specific Binding [6]: -1% | % Inhibition of Control Specific Binding [7]: 4% | metabolism in mice [8]: rapidly metabolized | inhibition at 5 µM [9]: 3% | inhibition at 5 µM [10]: 3% | % Inhibition of Control Specific Binding [11]: 16% | EGF-induced Erk phosphorylation ([12]; PANC-1, 20 μM, longer incubation times (>3 h)): remained unaffected | EGF-induced Erk phosphorylation ([12]; PANC-1, 1 h, 5 μM Deltarasin or 20 μM Deltazinone 1, 5 min EGF): did not significantly affect | inhibition at 5 µM [13]: 59% | inhibition at 5 µM [14]: -4% | % Inhibition of Control Specific Binding [15]: 3% | Tmax ([16]; ip): 4.8 min | C0 ([16]; iv): 3380 ng/mL | Vd ([16]; iv): 1.18 L/kg | clearance ([16]; iv): 30.8 mL/min/kg | AUC(0-inf) ([16]; iv, AUC 0-inf): 1620 ng·h/mL | AUC(0-t) ([16]; iv, AUC 0-t): 1620 ng·h/mL | half-life ([16]; iv, t1/2): 21 min | % Inhibition of Control Specific Binding [17]: 1% | inhibition at 5 µM [18]: 2% | inhibition at 5 µM [19]: 2%

c1ccc(Cn2c(-c3ccc(OC[C@H](C4CCNCC4)n4c(-c5ccccc5)nc5ccccc54)cc3)nc3ccccc32)cc1 [Deltarasin, reference compound]
inhibition at 5 µM [20]: 24% | inhibition at 5 µM [1]: 97% | % Inhibition of Control Specific Binding [2]: -6% | inhibition at 5 µM [21]: 3% | inhibition at 5 µM [22]: 6% | % Inhibition of Control Specific Binding [6]: 20% | % Inhibition of Control Specific Binding [7]: 33% | inhibition at 5 µM [23]: 7% | inhibition at 5 µM [9]: 7% | inhibition at 5 µM [10]: 89% | IC50 [24, 29]: 6.67 µM | Hill coefficient [24]: -10.8 | IC50 [25, 29]: 4.83 µM | Hill coefficient ([25]; Panc-Tu-I, CellTiter-Glo, n = 14): -5.3 | % Inhibition of Control Specific Binding [11]: 13% | inhibition at 5 µM [13]: 70% | inhibition at 5 µM [14]: 8% | % Inhibition of Control Specific Binding [15]: 1% | % Inhibition of Control Specific Binding [17]: 11% | inhibition at 5 µM [26]: 1% | interaction between mCitrine-KRas and mCherry-PDEδ [27]: abolished the interaction | inhibition at 5 µM [18]: 78% | inhibition at 5 µM [28]: 4%
